According to patent publication US12606556B2, “TYK-2 inhibitor” (BEIGENE, LTD., priority 2020, dated 2026):

Experiments:
[1] = target: T1, TYK2-JH2 (aa 575-869, in-house) protein (Homo sapiens, UniProt P29597); assay: TYK2-JH2 biochemical assay (HTRF, blocking of TYK2-JH2 protein with its probe); format: binding; conditions: for IC50: HTRF, 0.2 nM recombinant TYK2-JH2, Probe 1; for Biochemical assay Selectivity fold (TYK2/JAK1): TYK2-JH2 vs JAK1-JH2 biochemical IC50
T1 construct: TYK2-JH2 (aa 575-869, in-house) protein; made in house
T1 sequence (P29597 575-869): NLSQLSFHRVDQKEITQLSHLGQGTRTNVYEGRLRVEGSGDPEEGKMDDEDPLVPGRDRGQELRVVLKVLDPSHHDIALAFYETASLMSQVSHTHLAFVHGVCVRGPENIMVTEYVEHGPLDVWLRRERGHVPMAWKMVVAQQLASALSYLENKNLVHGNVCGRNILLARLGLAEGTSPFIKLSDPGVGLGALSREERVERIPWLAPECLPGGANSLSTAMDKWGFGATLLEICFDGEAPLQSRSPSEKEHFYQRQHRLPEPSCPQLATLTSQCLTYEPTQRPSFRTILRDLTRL
Protocol: Assay A: TYK2-JH2 Biochemical Assay
Compounds disclosed herein were tested for blocking of TYK2-JH2 (aa 575-869, in-house) protein with its probe in an assay based on Homogeneous Time Resolved Fluorescence.
Compound dilution is done according to the following protocol: (1) Prepare 500× compounds solution in DMSO from 500 uM by 5-fold dilution, total 10 doses were included; (2) Prepare 10× compounds solution in an assay buffer containing 20 mM HEPES, pH 7.5, 10 mM MgCl2, 0.005% BSA, 2 mM DTT, 0.015% Brij-35 by transferring 1 μl serial 500× stock solution into 49 μl assay buffer. 4 μl of 0.2 nM recombinant TYK2-JH2 protein was pre-incubated with 1 μl of 10×serial dilution of compounds at room temperature for 0.5 hour. Then 5 μl of 10 nM in-house Probe 1 (6-((3,5-dimethylphenyl)amino)-8-((4,26-dioxo-30-((3aS,4S,6aR)-2-oxohexahydro-1H-thieno[3,4-d]imidazol-4-yl)-7,10,13,16,19,22-hexaoxa-3,25-diazatriacontyl)amino)imidazo[1,2-b]pyridazine-3-carboxamide, KD=10 nM), 5 μl Mab Anti-6His Tb cryptate Gold (Cat: 61HI2TLB, Cisbio Bioassays) and Streptavidin-XL665(Cat: 610SAXLB, Cisobio Bioassays) mixture were added to plate and further incubated at room temperature for 1 hour. The HTRF signals (ex337 nm, em620 nm/665 nm) were read on BMG PHERAstar FS instrument. The inhibition percentage of TYK2 interaction with its probe in presence of increasing concentrations of compounds was calculated based on the ratio of fluorescence at […]. The IC50 for each compound was derived from fitting the data to the four-parameter logistic equation by Dotmatics.

[2] = target: T2, JAK1-JH2 protein (aa 561-860, in-house) (Homo sapiens, UniProt P23458); assay: JAK1-JH2 biochemical assay (HTRF, blocking of JAK1-JH2 protein with its probe); format: binding; conditions: 1.17 nM recombinant JAK1-JH2, Probe 2
T2 construct: JAK1-JH2 protein (aa 561-860, in-house); made in house
T2 sequence (P23458 561-860): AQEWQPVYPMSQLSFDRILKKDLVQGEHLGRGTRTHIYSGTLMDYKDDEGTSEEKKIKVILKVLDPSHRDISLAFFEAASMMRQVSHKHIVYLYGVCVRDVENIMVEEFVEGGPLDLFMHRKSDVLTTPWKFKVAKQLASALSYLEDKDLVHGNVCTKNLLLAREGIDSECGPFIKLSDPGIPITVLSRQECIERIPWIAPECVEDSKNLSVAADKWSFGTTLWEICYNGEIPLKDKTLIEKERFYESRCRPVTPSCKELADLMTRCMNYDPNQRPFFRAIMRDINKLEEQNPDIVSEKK
Protocol: Assay B: JAK1-JH2 Biochemical Assay
Compounds disclosed herein were tested for blocking of JAK1-JH2 protein (aa 561-860, in-house) with its probe in an assay based on Homogeneous Time Resolved Fluorescence. Compound dilution is done according to the following protocol: (1) Prepare 500× compounds solution in DMSO from 500 uM by 5-fold dilution, total 10 doses were included; (2) Prepare 10× compounds solution in an assay buffer containing 20 mM HEPES, pH 7.5, 10 mM MgCl2, 0.005% BSA, 2 mM DTT, 0.015% Brij-35 by transferring 1 μl serial 500× stock solution into 49 μl assay buffer. 4 μL of 1.17 nM recombinant JAK1-JH2 protein was pre-incubated with 1 μl of 10×serial dilution of compounds at room temperature for 0.5 hour. […] The HTRF signals (ex337 nm, em620 nm/665 nm) were read on BMG PHERAstar FS instrument. The inhibition percentage of JAK1 interaction with its probe in presence of increasing concentrations of compounds was calculated based on the ratio of fluorescence at 615 nm to that at 665 nm. The IC50 for each compound was derived from fitting the data to the four-parameter logistic equation by Dotmatics.

[3] = tested on: JAK2, TYK2/p-STAT4 (Tyr693) activated by IL-12 in NK-92 cell line; assay: IL-12-JAK2, TYK2/p-STAT4 (Tyr693) inhibition cellular assay; format: cell-based; conditions: for IC50: NK92, 0.5 h, NK-92 cells, IL-12 40 ng/ml, 30 min, read-out: Cellular assay pSTAT4/IL-12 IC50; for Cellular assay Selectivity fold (TYK2/JAK1): pSTAT4/IL-12 vs pSTAT3/IL-6 cellular IC50
Source text: Assay C: IL-12-JAK2, TYK2/p-STAT4 (Tyr693) Inhibition IC50 Cellular Assay
To evaluate the inhibition effect of compounds disclosed herein on JAK2, TYK2/p-STAT4 (Tyr693) activated by IL-12 in NK-92 cell line, NK-92 cells were collected and washed 3 times by DPBS and resuspended in MEM-α(GIBCO,Cat #12561056) with 10% FBS (Gibco, Cat #10099, Lot #1891605), without IL-2 (R&D systems,Cat #202-IL), starved overnight. Cells were collected and resuspended in 1640 medium (phenol red free, Gibco, Cat #11835-030) with 0.1% BSA, and 12.5 μl/5×10^4/well cell suspension were seeded to the 96-well plate (Corning, Cat #3799). Then cells were treated with compounds diluted in 0.2% DMSO 1640 medium, at 37° C., 1 h. Dilution is done according to the following protocol: (1) make 500× compounds solution in DMSO from 5 mM by 4-fold dilution, total 8 doses were included; (3) make 2× compounds solution in assay medium by transferring 0.5 μl serial 500× stock solution into 125 μl assay medium; (4) 15 μl of 2× serial solution is added to cells and incubate at 37° C. for 1 h, the final compound conc. is 10000,2500,625,156.25,39,9.8,2.4 and 0.61 nM, respectively. After 1 h, cells were treated with 2.5 μl medium containing IL-12 at 37° C. (R&D systems, Cat #219-IL-005, final conc.40 ng/ml), 30 min. Following cells were lysed with 7.5 μl lysis buffer at RT, shaking on shaker for 1 h. 10 μL of cell lysate were transferred to a PE 384-well Proxiplate detection plate, and 5 μL of pre-mixed Alphascreen beads were added to each well. Covered the plate with a plate sealer, span 1000 rpm for 1 min, mix, Incubated overnight at room temperature. Read on BMG PheraStar with Alphascreen protocol. IC 50 values were calculated by fitting dependent data to the four-parameter logistic model using dotmatics software. The assay was performed by using AlphaLISA SureFire Ultra p-STAT4 (Tyr693) Assay Kit—High Volume (PE, Cat #ALSU-PST4-A-HV).

[4] = tested on: JAK1/p-STAT3(Tyr705) activated by IL-6 in TF-1 cell line; assay: IL-6-JAK1/p-STAT3(Tyr705) inhibition cellular assay; format: cell-based; conditions: Homo sapiens, 0.5 h; TF-1 cells, IL-6 50 ng/ml, 30 min; read-out: Cellular assay pSTAT3/IL-6 IC50
Source text: Assay D: IL-6-JAK1/p-STAT3(Tyr705) Inhibition IC50 Cellular Assay
To evaluate the inhibition effect of compounds disclosed herein on JAK1/p-STAT3(Tyr705) activated by IL-6 in TF-1 cell line, TF-1 cells were collected and washed 3 times by DPBS and resuspended in RPMI-1640 (phenol red free, Gibco, Cat #11835-030) with 0.1% FBS (Gibco, Cat #10099, Lot #1891605), without GM-CSF(R&D systems,Cat #215-GM-050), starved overnight. Cells were collected and resuspended in 1640 medium (phenol red free, Gibco, Cat #11835-030) with 0.1% BSA, and 12.5 μl/10×10^4/well cell suspension were seeded to the 96-well plate (Corning, Cat #3799). Then cells were treated with compounds diluted in 0.2% DMSO 1640 medium, at 37° C., 1 h. Dilution is done according to the following protocol: (1) make 500× compounds solution in DMSO from 5 mM by 4-fold dilution, total 8 doses were included; (3) make 2× compounds solution in assay medium by transferring 0.5 μl serial 500× stock solution into 125 μl assay medium; (4) 15 μl of 2× solution is added to cells and incubate at 37° C. for 1 h, the final compound conc. is 10000,2500,625,156.25,39,9.8,2.4 and 0.61 nM, respectively. After 1 h, cells were treated with 2.5 μl medium containing IL-6 at 37° C. (R&D systems, Cat #206-IL-010, final conc.50 ng/ml), 30 min. Following cells were lysed with 10 μl lysis buffer at RT, shaking on shaker for 1 h. 16 μL of cell lysate were transferred to a PE 384-well HTRF detection plate, and 4 μL of pre-mixed HTRF antibodies were added to each well. Covered the plate with a plate sealer, span 1000 rpm for 1 min, mix, Incubated overnight at room temperature. Read on BMG PheraStar with HTRF protocol (337 nm-665 nm-620 nm). IC 50 values were calculated by fitting dependent data to the four-parameter logistic model using dotmatics software. The assay was performed by using HTRF Phospho-STAT3(Tyr705) Cellular Assay Kit (Cisbio, Cat #62AT3PEG).

Row | Compound | IC50 [1] [nM] | Biochemical assay Selectivity fold (TYK2/JAK1) [1] [fold] | IC50 [2] [nM] | IC50 [3] [nM] | Cellular assay Selectivity fold (TYK2/JAK1) [3] [fold] | IC50 [4] [nM]
1 | CNC(=O)c1nnc(NC(=O)C2CC2)cc1Nc1nc2ccc(OC3CN(C(C)=O)C3)cn2n1 [Example C4, 4-((6-((1-acetylazetidin-3-yl)oxy)-[1,2,4]triazolo [1,5-a]pyridin-2-yl)amino)-6-(cyclopro-panecarbox-amido)-N-methyl-pyridazine-3-carboxamide] | 0.08 | 15 | 1.2 | 309 | >32 | > 10000
2 | CNC(=O)c1nnc(NC(=O)C2CC2)cc1Nc1nc2ccc(OC3CN(C(=O)CC#N)C3)cn2n1 [Example C5, 4-((6-((1-(2-cyanoacetyl)azetidin-3-yl)oxy)-[1,2,4]triazolo[1,5-a]pyridin-2-yl)amino)-6-(cyclopro-panecarbox-amido)-N-methyl-pyridazine-3-carboxamide] | 0.143 | 11 | 1.56 | 1320 | >8 | > 10000
3 | CNC(=O)c1nnc(NC(=O)C2CC2)cc1Nc1nc2ccc(OC3CN(C4CCOC4)C3)cn2n1 (stereo not drawn) [Example D1, 6-(cyclopropanecarboxamido)-N-methyl-4-((6-((1-(tetrahydrofuran-3-yl)azetidin-3-yl)oxy)-[1,2,4]triazolo[1,5-a]pyridin-2-yl)amino)pyridazine-3-carboxamide] | 0.099 | 12 | 1.21 | 68.4 | >146 | > 10000
4 | CNC(=O)c1nnc(NC(=O)C2CC2)cc1Nc1nc2ccc(N3CCC3)cn2n1 [Example E1, 4-((6-(azetidin-1-yl)-[1,2,4]triazolo[1,5-a]pyridin-2-yl)amino)-6-(cyclopropanecarboxamido)-N-methylpyridazine-3-carboxamide] | 0.047 | 34 | 1.6 | 13.3 | 475 | 6330
5 | CNC(=O)c1nnc(NC(=O)C2CC2)cc1Nc1nc2ccc(N3CC(OC)C3)cn2n1 [Example E2, 6-(cyclopropanecarboxamido)-4-((6-(3-methoxyazetidin-1-yl)-[1,2,4]triazolo[1,5-a]pyridin-2-yl)amino)-N-methylpyridazine-3-carboxamide] | 0.047 | 26 | 1.2 | 9.01 | 1087 | 9800
6 | [2H]C([2H])([2H])NC(=O)c1nnc(NC(=O)C2CC2)cc1Nc1nc2ccc(N3CCC3)cn2n1 [Example E3, 4-((6-(azetidin-1-yl)-[1,2,4]triazolo [1,5-a]pyridin-2-yl)amino)-6-(cyclopropanecarbox-amido)-N-(methyl-d3) pyridazine-3-carboxamide] | 0.038 | 34 | 1.3 | 8.9 | 453 | 4060
7 | CNC(=O)c1nnc(NC(=O)C2CC2)cc1Nc1nc2ccc(N3CC(CC(F)F)C3)cn2n1 [Example E4, 6-(cyclopropanecar-boxamido)-4-((6-(3-(2,2-difluoroethyl)azetidin-1-yl)-[1,2,4]triazolo[1,5-a]pyridin-2-yl)amino)-N-methylpyridazine-3-carboxamide] | 0.044 | 34 | 1.5 | 10 | 540 | 5400
8 | CNC(=O)c1nnc(NC(=O)C2CC2)cc1Nc1nc2ccc(N3CC(N(C)C)C3)cn2n1 [Example E5, 6-(cyclopropanecar-boxamido)-4-((6-(3-(dimethylamino)azetidin-1-yl)-[1,2,4]triazolo [1,5-a]pyridin-2-yl)amino)-N-methylpyridazine-3-carboxamide] | 0.064 | 26 | 1.7 | 16 | 454 | 7270
